The subject of test [1] is Platelet. The experiment in a line: Inhibition of PAF-induced platelet aggregation at 2.4 mmol/L. The format is functional.
The test system of test [2] is Platelet. Kind of test: Inhibition of PAF-induced platelet aggregation at 1.0 mmol/L. The format is functional.

For 4 compounds, inhibition results are on record in ChEMBL document CHEMBL1149839, “Alkaloids from Daphniphyllum oldhami” (2008).

In the case of `CC(=O)Oc1ccccc1C(=O)O` [ASPIRIN], the inhibition (in general, the change of the read-out against control, counted positive when it falls) at 2400 µM in the test on Platelet [1] was 44.9%.
`CC(=O)O[C@@H](C[C@]12[C@@H]3CCC[C@@]34CCC3[C@H](O)N4[C@@H]1[C@@H](C(C)C)CC[C@@]32C)C(=O)[C@]1(C)CO[C@@]2(C)CC[C@H]1O2` [DAPHNIOLDHANINE H] registered an inhibition at 1000 µM in the test on Platelet [2] of 10.9%.
In turn, `CCC1=CC[C@]2(CO1)[C@@H]1CCC3=C4[C@H](CC3)[C@H](C(=O)OC)C[C@]42CN(C)C1` [DEHYDRODAPHNIGRACILINE] displayed an inhibition at 1000 µM in the test with Platelet [2] of 13.4%.
`C[C@@H]1CN2[C@H]3[C@@H]4CCC[C@@H]4C(=O)C[C@@H]3[C@]3(C)OC(=O)CC[C@]34CC[C@H]1[C@H]24` [DAPHNIOLDHANINE J] registered an inhibition at 1000 µM with Platelet [2] of 71.6%.
